Results on three molecules are retold here after publication PMC4363317, “A Highly Efficient Recombinant Laccase from the Yeast Yarrowia lipolytica and Its Application in the Hydrolysis of Biomass” (PLoS ONE, 2015).

The experiment addresses T1, YlLac (Yarrowia lipolytica, UniProt G1C1M2).
T1 construct: ORF 519 residues incl; 19-residue native signal (abstract instead calls the mature protein 519 aa); expressed without native signal behind alpha-factor signal (pPICZalphaA-Wsp-YlLac) in Pichia pastoris KM71H; forward primer GCCATTGGCCCGGTGACC encodes AIGPVT; monomer, glycosylated ~67-68 kDa, ~55 kDa after endoH
T1 sequence (G1C1M2 20-519): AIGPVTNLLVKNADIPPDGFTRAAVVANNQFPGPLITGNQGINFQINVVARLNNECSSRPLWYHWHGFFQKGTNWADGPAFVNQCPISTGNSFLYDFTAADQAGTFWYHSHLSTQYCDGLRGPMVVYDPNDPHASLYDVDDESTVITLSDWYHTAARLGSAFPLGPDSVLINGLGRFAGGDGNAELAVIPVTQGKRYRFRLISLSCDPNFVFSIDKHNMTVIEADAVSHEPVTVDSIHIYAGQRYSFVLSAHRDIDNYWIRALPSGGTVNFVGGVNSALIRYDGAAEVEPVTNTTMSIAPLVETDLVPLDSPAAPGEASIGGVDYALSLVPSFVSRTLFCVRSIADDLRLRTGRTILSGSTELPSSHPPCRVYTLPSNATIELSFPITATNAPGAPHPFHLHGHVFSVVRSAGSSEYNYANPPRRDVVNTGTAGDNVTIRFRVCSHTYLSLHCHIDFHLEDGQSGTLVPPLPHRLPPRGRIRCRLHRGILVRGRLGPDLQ
In words: biochemical. The note with it: 0.1 mM ABTS, pH 4.8, read-out: % of control remaining; for remaining activity at 100 µM: 0.1 mM; for remaining activity at 500 µM: 0.5 mM; for remaining activity at 1000 µM: 1 mM. Further details: spectrophotometric ABTS oxidation by purified recombinant YlLac with inhibitor, 50 mM sodium acetate pH 4.8. On the procedure: Sodium dodecyl sulfate polyacrylamide gel electrophoresis (SDS-PAGE; 12% w/v polyacrylamide) was performed as described by Laemmli. The native molecular mass was determined by applying samples to a calibrated Sephacryl S-300 HR 16/60 column as recommended by the supplier (GE Healthcare). Purified recombinant YlLac was treated with endoglycosidase H (NEB, Biolabs UK) according to the manufacturer's protocol. YlLac (6 μg) in 1× glycoprotein denaturing buffer was boiled for 10 min. After cooling, 1 μl of endoglycosidase H was added and the sample was incubated at 37°C overnight. The product of endoglycosidase H treatment was analyzed by SDS-PAGE. Protein bands were stained with Coomassie brilliant blue R-250 (Sigma). The zymogram process was carried out using native PAGE, and the enzyme band was visualized by incubating the gel in 50 mM sodium acetate buffer (pH 4.8) containing 0.1 mM ABTS and 2,6-DMP at room temperature. The UV-vis absorption spectrum of purified laccase was recorded at 25°C on a spectrophotometer (Shimadzu, model UV-1800, Tokyo) in 2 cm path length quartz cells. The effects of pH on laccase activity for various substrates were tested at pH 2–6 in 50 mM citrate-phosphate buffer (pH 2–4) or 50 mM sodium-acetate buffer (pH 4–6). The activity of purified laccase towards the ABTS substrate was examined at 20–80°C at the optimal pH value. The rates of substrate oxidation were determined by measuring the absorbance increases at the respective wavelengths, and the molar extinction coefficients (ε) were obtained from the literature. The effects of various inhibitors and metal ions on the activity of purified laccase were determined using assay mixtures (2 ml) containing appropriately diluted enzyme, 50 mM sodium acetate buffer (pH 4.8), and 0.1 mM ABTS with various concentrations of inhibitors or 5 mM metal ions. Laccase activity in the absence of inhibitor or metal ions was defined as 100%. Measurements were carried out in triplicate. K m and V max values of purified YlLac were determined by measuring the activity of the enzyme with various concentrations (0.01–0.1 mM) of ABTS and 2,6-DMP substrates at the optimal condition in each case. Ki A number of compounds were examined for their effects on YlLac activity, including small ions [compound left out], sulfhydryl group-containing redox reagents (L-cysteine and dithiothreitol, […]), denaturants (thiourea), and a chelator (EDTA) (S2 Table). […] Enzyme activity was not observed in the presence of 0.1 mM NaN3. SDS caused partial inhibition and the metal chelating agent EDTA caused no inhibition. Metal ions such as Cr^3+, Mg^2+, and Mn^2+ inhibited 25%, 24%, and 24% of YlLac activity, respectively.

For the molecule `N[C@@H](CS)C(=O)O` [l-Cysteine], the remaining activity at 100 µM came out at 76.6 ± 2.1%, the remaining activity at 500 µM was 11.1 ± 1.5% and the remaining activity at 1000 µM was determined as 0%.
As to `NC(N)=S` [Thiourea], the remaining activity at 100 µM came out at 91.1 ± 2.1%, the remaining activity at 500 µM came to 42.2 ± 2% and the remaining activity at 1000 µM was found to be 12.3 ± 1.5%.
On to `O[C@@H](CS)[C@@H](O)CS` (racemic) [Dithiothreitol], for which the remaining activity at 100 µM was determined as 61.1 ± 2.4%, the remaining activity at 500 µM was 2 ± 0.4% and the remaining activity at 1000 µM worked out at 0%.
